What was measured:
[1] = target: T1, 5-HT2A receptors (Homo sapiens, UniProt P28223); assay: Radioligand binding ([3H]MDL-100,907) to 5-HT2A receptors in post-mortem human frontal cortex membranes
T1 construct: 5-HT1A and 5-HT2A receptors in post-mortem human brain tissue from the hippocampus and frontal cortex, respectively; tissue Edinburgh Sudden Death Brain Bank; host or cells: post-mortem human frontal cortex membranes

[2] = tested on: Escherichia coli (WP2 uvrA pKM101); assay: Bacterial mutation test, tryptophan-requiring strain; assay type: cell-based; settings: up to 5000 μg/plate, absence and presence of rat liver S-9
Description: These conditions included treatments at concentrations up to 5000 μg/plate (the maximum recommended concentration according to current regulatory guidelines), in the absence and in the presence of a rat liver metabolic activation system (S-9).

[3] = target: T2, 5-HT1A receptors (Homo sapiens, UniProt P08908); assay: Radioligand binding ([3H]8-OH-DPAT) to 5-HT1A receptors in post-mortem human hippocampus membranes
T2 construct: 5-HT1A and 5-HT2A receptors in post-mortem human brain tissue from the hippocampus and frontal cortex, respectively; tissue Edinburgh Sudden Death Brain Bank; host or cells: post-mortem human hippocampus membranes
T2 sequence (P08908 1-422): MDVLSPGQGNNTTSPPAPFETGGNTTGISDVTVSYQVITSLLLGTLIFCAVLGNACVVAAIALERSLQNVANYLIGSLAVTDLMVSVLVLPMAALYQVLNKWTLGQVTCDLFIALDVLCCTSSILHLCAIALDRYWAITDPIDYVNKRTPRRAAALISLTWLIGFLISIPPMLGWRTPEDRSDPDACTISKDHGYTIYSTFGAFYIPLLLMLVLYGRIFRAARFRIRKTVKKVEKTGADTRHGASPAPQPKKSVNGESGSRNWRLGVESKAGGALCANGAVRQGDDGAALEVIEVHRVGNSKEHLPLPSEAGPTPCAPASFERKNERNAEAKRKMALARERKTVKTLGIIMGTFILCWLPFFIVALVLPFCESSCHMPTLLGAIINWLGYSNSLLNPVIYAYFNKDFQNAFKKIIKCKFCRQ

T1 sequence (P28223 whole entry): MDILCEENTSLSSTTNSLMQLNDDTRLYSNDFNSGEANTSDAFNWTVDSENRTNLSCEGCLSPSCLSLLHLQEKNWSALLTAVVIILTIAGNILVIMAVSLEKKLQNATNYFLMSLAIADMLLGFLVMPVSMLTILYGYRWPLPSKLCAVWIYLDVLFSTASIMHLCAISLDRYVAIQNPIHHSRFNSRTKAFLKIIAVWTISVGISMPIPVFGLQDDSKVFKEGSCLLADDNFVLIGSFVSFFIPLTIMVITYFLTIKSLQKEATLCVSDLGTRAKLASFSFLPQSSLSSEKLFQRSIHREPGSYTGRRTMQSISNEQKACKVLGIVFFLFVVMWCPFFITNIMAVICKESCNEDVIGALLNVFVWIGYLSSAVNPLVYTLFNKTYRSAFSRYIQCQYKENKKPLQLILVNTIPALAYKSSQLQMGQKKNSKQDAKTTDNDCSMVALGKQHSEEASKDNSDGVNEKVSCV

SMILES: COc1ccc2[nH]cc(CCN(C)C)c2c1 [5-MeO-DMT]
- affinity for 5-HT2A receptors (in words) [1]: comparatively weak affinity
- induction of mutation [2]: did not induce mutation
- affinity for 5-HT1A receptors (in words) [3]: high affinity

Source: US20250213533A1 (GH RESEARCH IRELAND LIMITED, priority 2022, published 2025)
